In patent US9399032B2, “Methods and compositions for treating degenerative and ischemic disorders” (The General Hospital Corporation, priority 2009, dated 2016):
Where a name gives a salt, the structure may show the parent alone. Read-outs that look alike come from different tables or passages of the source.

Legend:
[1] = tested on: MCH58 fibroblasts; conditions: 72 h, 10 µM
Description: (§1) The assay included monitoring or measuring cell growth in cells that are grown in glucose (which allows the cell to utilize glycolysis) or in galactose (which switches the cell energy production from glycolysis to the OXPHOS pathway).
(§2) The high glucose medium was replaced with 10 mM glucose or 10 mM galactose wherever indicated. All media contained 1 mM pyruvate and 4 mM glutamine.
(§3) Cell number quantification high throughput assays were performed as follows. […] 24 hours later, cells were washed twice in PBS and media was replaced with either 10 mM glucose or 10 mM galactose containing media.
(§4) Approximately 100 nL of each compound was pin-transferred in duplicate into the plates with a steel pin array using the CyBi-Well robot (CyBio). […] Compound-treated plates were incubated at 37° C. for 72 hours. […] Wells were then washed once and stored in PBS. Cell culture plates were stored at 4° C. until time of imaging, which was at most 24 hours after fixation.
(§5) Imaging was performed by Arrayscan VTi automated microscope (ThermoFisher Scientific) with the use of an automated plate stacker. Appropriate filter sets for the detection of the Hoescht fluorescent signal were used. Four non-overlapping images at 5× magnification (NA 0.25) were acquired for a field of view of 1.3 mm×1.3 mm per image. The plate stacker and microscope including an auto-focusing algorithm were controlled entirely with ArrayScan software. Images were captured and stored simultaneously in at least two independent locations. Image analysis was performed using the freely available open-source software package CellProfiler. […] Images were analyzed individually by first identifying nuclei using the Hoescht staining signal.
(§6) Total number of nuclei per field were recorded, and the four images per well were totaled to give the cell count per well. Computation was performed using a UNIX computer cluster. Appropriate masking of each nucleus was ensured by visually monitoring each batch at its onset and intermittently throughout the run.
(§7) The fibroblast cells were seeded on Day 0 and incubated for 24 hours in standard culture media.
(§8) Normalized cell counts were computed separately for each 96-well plate by dividing the cell count of each well with the trimmed mean (the average after discarding the largest and smallest value) of the cell counts for the 16 DMSO treated wells. […] The remaining replicate measurements were averaged, and fold changes were computed as the ratio between the average normalized counts for the glucose and galactose screens. To evaluate statistical significance, Z-scores were computed for each well against the DMSO (null) distribution and averaged Z-scores across replicates. Wells with average Z-score greater than 2.5 were considered significant.
(§9) By jointly analyzing the glucose and galactose results, a glucose-galactose cell growth ratio can be calculated (Sglu/gal) that represents the log10 fold-change in cell growth in a glucose rich media divided by the log10 fold-change in cell growth in a galactose rich media. […] Low Sglu/gal scores (e.g., ranging between approximately (−) 0.1 to (−) 0.7) may arise from inhibition of glycolysis or from inhibition of proliferation, since cells grown in glucose-rich media divide more rapidly.

[2] = tested on: isolated mitochondria; test: Effect of phosphoethanolamine on uncoupled respiration of isolated mitochondria; format: biochemical; conditions: ~1 min incubation, 1 μM CCCP
Description: Mitochondria were isolated from C57BL/6 mouse kidneys by differential centrifugation and resuspended in experimental buffer to a final concentration of 0.15 mg/ml. Mootha et al., Am J Physiol 272:H769 (1997). State 2 respiration was initiated with the addition of 2.5 mM glutamate and 2.5 mM malate. State 3 respiration was initiated with the addition of 50 nmoles ADP. […] O2 consumption was monitored with a Fiber Optic Oxygen sensor probe from Ocean Optics, and NADH (endogenous, 370±7 nm excitation, 440±4 nm emission) and membrane potential (1.25 μM TMRM, 546±7 nm excitation, 590±4 nm emission) were measured with a Perkin-Elmer LS50B fluorimeter. A representative trace is shown from 6 independent experiments. 1M stock of phosphoethanolamine (Sigma P0503) was made in sterile water and pH was adjusted to 7.4 by 1N potassium hydroxide solution.
The upregulation of phosphoethanolamine was confirmed by orthogonal chromatography, as well as via ^31P-NMR. […] Previous studies have shown that phosphoethanolamine can be elevated in tumor cells, and that ethanolamine and PEA can directly silence mitochondrial OXPHOS. Zhu et al., J Lipid Res 49: 2197 (2008); and Modica-Napolitano et al., Biol Psychiatry 55:273 (2004). […]

[3] = molecular target: human H 1 receptor (Homo sapiens, UniProt P35367); test: H1 receptor competitive binding assay with [3H]pyrilamine; conditions: 3 nM [3H]pyrilamine
Description: The ability of each enantiomer to bind to the H1 receptor was evaluated using a competitive binding experiment with the racemate. In vitro binding of R-meclizine (R-Mec) and S-meclizine (S-Mec) to human H 1 receptor was determined by competitive binding assays in the presence of 3 nM [3H]pyrilamine. Non-specific binding was determined in the presence of excess (1 μM) unlabeled Pyrilamine. IC50 were determined by non-linear regression analysis of the competition curves.

[4] = tested on: AMPK; test: Western blot detection of AMPK phosphorylation; format: cell-based; conditions: C2C12 myotubes, 24 hours of treatment
Description: The ability of meclizine, S-meclizine and R-meclizine to activate AMPK in C2C12 myotubes was also evaluated using Western blot detection of AMPK phosphorylation in C2C12 myotubes following 24 hours of treatment with R-meclizine (R-Mec), S-meclizine (S-Mec) and the racemic mixture (Rac-Mec).

[5] = tested on: C2C12 myotubes; test: [3H]-2-deoxyglucose uptake; format: cell-based; conditions: 50 micromolar, four hours
Description: Fully differentiated C2C12 myotubes were subjected to a glucose uptake protocol, as follows. Briefly, C2C12 myotube cells were incubated for four hours in serum-free media containing either 0.1% DMSO as a control, 50 micromolar meclizine, 50 micromolar S-meclizine, or 2 mM metformin. Cells were subsequently incubated for thirty minutes in serum and glucose free buffer and then transitioned to buffer containing [3H]-2-deoxyglucose for five minutes. After multiple wash steps, cells were lysed and the lysate was subjected to scintillation counting to quantify uptake. Data were prepared as raw counts per minute, which is proportional to 2-deoxyglucose uptake.

[6] = tested on: purified recombinant PCYT2; test: PCYT2 enzyme assay in vitro; format: biochemical; conditions: 50-1000 μM meclizine or 50-600 μM S-meclizine
Description: FIGS. 16 C-D are line graphs showing that PCYT2 (CTP:phosphoethanolamine cytidylyltransferase 2) is a target of meclizine (16C) and S-meclizine (16D). PCYT2 enzyme assays were carried out in vitro with purified recombinant PCYT2 in the presence of 50-1000 μM meclizine or 50-600 μM of S-meclizine.
CTP:Phosphoethanolamine Cytidylyltransferase (PCYT2) catalyzes the formation of CDP-ethanolamine, which is often the rate regulatory step in the PE-Kennedy pathway. See, e.g., Fullerton et al., J Biol Chem 18; 284(38):25704-13 (2009). To determine whether meclizine affects PCYT2 activity, PCYT2 (CTP:phosphoethanolamine cytidylyltransferase 2) enzyme assays were carried out in vitro with purified recombinant PCYT2 in the presence of 50-1000 μM meclizine or 50-600 μM of S-meclizine. For additional details see Zhu et al., J Lipid Res 49: 2197 (2008).

[7] = tested on: STHdhQ111/111 striatal cells; test: Viability of mutant huntingtin striatal cells after serum withdrawal (CellTiter-Glo); format: cell-based, murine; conditions: serum free media, 24 hours
Description: Wherever indicated, mutant (STHdh^Q111/111) striatal cells were grown in serum free media for ˜24 hours before ATP measurement. Luminescence was measured in DTX880 multimode detector. Multiple concentrations (between 100 μM and 0.5 μM) of rotenone, antimycin, oligomycin, meclizine, hydroxyzine (Spectrum chemical), thiethylperazine (Prestwick), cyproheptadine (Sigma), pyrilamine (Spectrum chemical), tripelennamine (Spectrum chemical), diphenhydramine (Spectrum chemical), clemastine (Prestwick), bromopheniramine (Spectrum chemical), pheniramine (Spectrum chemical), promethazine (MSDiscovery 01500510), atropine (Sigma), and scopolamine (Sigma) were tested for their protective effect on STHdh^Q111/111 cells in serum free media. The dose which conferred maximum protection is shown. Luminescence was measured in DTX880 multimode detector.
Although it is not necessary to understand the mechanism of an invention, it is believed that the observed cell survival may be due to suppressed apoptosis based on caspase 3 and 7 cleavage. Improved cell viability was confirmed by microscopy.

[8] = tested on: Adult rat ventricular cardiomyocytes; test: Simulated ischemia-reperfusion injury in isolated cardiomyocytes; format: cell-based; conditions: 60 minutes ischemia, 30 minutes reperfusion
Description: The ability of meclizine to protect isolated cardiomyocytes and isolated hearts from ischemic injury was investigated as follows Adult rat ventricular cardiomyocytes were isolated by endotoxin-free collagenase perfusion, and the simulated ischemia-reperfusion injury was performed as previously described (Wojtovich and Brookes, Basic Res. Cardiol., 104:121-129 (2009)). Control cells were exposed to DMSO for 20 minutes. Test cells were exposed to either vehicle or doses of meclizine for 20 minutes, which was washed out before being subjected to ischemia for 60 minutes followed by reperfusion for 30 minutes under normoxic conditions in normoxic glucose-replete buffer at pH 7.4. Cell viability was assayed by Trypan blue exclusion. VO2 was assessed by isolating mitochondria and measuring both respirating cells and mitochondria using a Clark oxygen electrode (Wojtovich, supra).

[9] = tested on: MCH58 fibroblasts; test: Glucose versus galactose cell growth screen (metabolic state-dependent lethality)
Description: as §1, §2, §3, §4, §5, §6, §7, §8, §9

[10] = tested on: C. elegans expressing 128Q huntingtin fragment in touch receptor neurons; conditions: even lower doses; cited from earlier work
[11] = approximately 10 μM compound, 72 hours, log10 fold change of normalized cell number in glucose versus galactose

human H 1 receptor, sequence (P35367 whole entry): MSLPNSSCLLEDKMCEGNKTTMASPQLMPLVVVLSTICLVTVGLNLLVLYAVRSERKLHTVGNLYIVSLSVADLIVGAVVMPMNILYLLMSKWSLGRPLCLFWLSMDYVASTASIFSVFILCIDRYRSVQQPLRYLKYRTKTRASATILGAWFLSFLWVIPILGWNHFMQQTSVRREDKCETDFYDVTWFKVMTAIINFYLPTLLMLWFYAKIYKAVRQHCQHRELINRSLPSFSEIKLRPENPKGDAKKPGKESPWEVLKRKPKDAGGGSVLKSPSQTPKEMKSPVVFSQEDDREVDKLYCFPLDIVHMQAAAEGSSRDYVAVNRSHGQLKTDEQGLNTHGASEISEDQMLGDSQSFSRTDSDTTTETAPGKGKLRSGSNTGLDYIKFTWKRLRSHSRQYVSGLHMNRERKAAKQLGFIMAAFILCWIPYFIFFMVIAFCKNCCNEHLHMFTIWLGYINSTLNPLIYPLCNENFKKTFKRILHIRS

Molecule: COc1ccc2c(c1)O[C@@H]1COc3cc(OC)c(OC)cc3[C@@H]1C2=O [Mundoserone]
- Sglu/gal (log10 fold change) Score [1]: 0.57

Molecule: NCCOP(=O)(O)O [PEA, phosphoethanolamine]
- uncoupler-stimulated respiration in isolated mitochondria [2]: blocks uncoupler-stimulated respiration

Molecule: Cc1cccc(CN2CCN([C@H](c3ccccc3)c3ccc(Cl)cc3)CC2)c1 [R-meclizine]
- affinity on the H1 receptor [3]: high affinity
- AMPK activation (phosphorylation) [4]: activate AMPK

Molecule: Cc1cccc(CN2CCN([C@@H](c3ccccc3)c3ccc(Cl)cc3)CC2)c1 [S-meclizine, S-Meclizine]
- affinity on the H1 receptor [3]: much weaker affinity
- basal glucose uptake [5]: promoted increased basal glucose uptake
- PCYT2 binding and inhibition [6]: binD to, and inhibit
- protection of STHdhQ111/111 cells after serum withdrawal [7]: is protective
- AMPK activation (phosphorylation) [4]: activate AMPK

Molecule: CN1[C@@H]2CC[C@H]1C[C@@H](OC(=O)C(CO)c1ccccc1)C2 (some centres unmarked) [atropine]
- protection of cardiomyocytes against I/R (cell viability, Trypan blue) [8]: not observed

Molecule: CO[C@@H]1C[C@@H](C[C@H]2CC[C@H](C)[C@H]([C@@H](C)C(=O)O)O2)O[C@]2(O[C@](C)([C@H]3CC[C@@](C)([C@@H]4O[C@@H]([C@H]5O[C@@](O)(CO)[C@H](C)C[C@@H]5C)C[C@@H]4C)O3)C[C@H]2C)[C@@H]1C [nigericin sodium]
- Sglu/gal (log10 fold change) Score [9, 11]: −0.31

Molecule: CNCCC=C1c2ccccc2CCc2ccccc21 [nortriptyline]
- inhibitory activity against cell growth in galactose (SAR analysis) ([9]; galactose versus glucose): moderate inhibitory activity

Molecule: CC(=O)O[C@H]1C(=O)[C@@]2(C)[C@H]([C@H](OC(=O)c3ccccc3)[C@]3(O)C[C@H](OC(=O)[C@H](O)[C@@H](NC(=O)c4ccccc4)c4ccccc4)C(C)=C1C3(C)C)[C@]1(OC(C)=O)CO[C@@H]1C[C@@H]2O [paclitaxel]
- Sglu/gal (log10 fold change) Score [9, 11]: −0.22

Molecule: CN(C)CCC(c1ccccc1)c1ccccn1 (centres unmarked) [pheniramine]
- protection of cardiomyocytes against I/R (cell viability, Trypan blue) [8]: not observed

Molecule: COC(=O)[C@]1(C)CC[C@]2(C)CC[C@]3(C)C4=CC=C5C(=CC(=O)C(O)=C5C)[C@]4(C)CC[C@@]3(C)[C@@H]2C1 [pristimerin]
- Sglu/gal (log10 fold change) Score [9, 11]: −0.37

Molecule: COC(=O)[C@]1(C)CC[C@]2(C)CC[C@]3(C)C4=CCc5c(cc(O)c(O)c5C)[C@]4(C)CC[C@@]3(C)[C@@H]2C1 [pristimerol]
- Sglu/gal (log10 fold change) Score [9, 11]: −0.45

Molecule: CC(C)N(C(=O)CCl)c1ccccc1 [propachlor]
- Sglu/gal (log10 fold change) Score [9, 11]: −0.26

Molecule: COc1ccc(CN(CCN(C)C)c2ccccn2)cc1 [pyrilamine]
- protection of cardiomyocytes against I/R (cell viability, Trypan blue) [8]: not observed

Molecule: [O-][n+]1ccccc1[S-].[O-][n+]1ccccc1[S-].[Zn+2] [pyrithione zinc]
- Sglu/gal (log10 fold change) Score [9]: −0.25

Molecule: CC[C@@]1(O)C[C@H](O[C@H]2C[C@H](N(C)C)[C@H](O)[C@H](C)O2)c2c(cc3c(c2O)C(=O)c2c(O)ccc(O)c2C3=O)[C@H]1C(=O)OC [pyrromycin]
- Sglu/gal (log10 fold change) Score [9, 11]: −0.30

Molecule: CCN(CC)CCCC(C)Nc1c2ccc(Cl)cc2nc2ccc(OC)cc12 (centres unmarked) [quinacrine hydrochloride]
- Sglu/gal (log10 fold change) Score [9, 11]: −0.30

Molecule: C=C(C)[C@H]1Cc2c(ccc3c2O[C@@H]2COc4cc(OC)c(OC)cc4[C@@H]2C3=O)O1 [rotenone]
- toxicity in worms (Varma et al.) [10]: strong developmental delay with severe toxicity
- protection of STHdhQ111/111 cells after serum withdrawal [7]: rescue

Molecule: C[C@]12CC[C@H](O)C[C@H]1CC[C@@H]1[C@@H]2[C@H](O)C[C@]2(C)[C@@H](C3=CC(=O)OC3)CC[C@]12O [sarmentogenin]
- Sglu/gal (log10 fold change) Score [9, 11]: −0.21

Molecule: CN1[C@@H]2C[C@@H](OC(=O)[C@H](CO)c3ccccc3)C[C@H]1[C@@H]1O[C@@H]12 [scopolamine]
- protection of cardiomyocytes against I/R (cell viability, Trypan blue) [8]: not observed

Molecule: C[CH2][Hg][S]c1ccccc1C(=O)[O-].[Na+] [thimerosal]
- Sglu/gal (log10 fold change) Score [9]: −0.22

Molecule: C[C@H]1CC[C@]2(NC1)O[C@H]1C[C@H]3[C@@H]4CC[C@H]5C[C@@H](O[C@@H]6O[C@H](CO)[C@H](O[C@@H]7O[C@H](CO)[C@@H](O)[C@H](O[C@@H]8OC[C@@H](O)[C@H](O)[C@H]8O)[C@H]7O[C@@H]7O[C@H](CO)[C@@H](O)[C@H](O)[C@H]7O)[C@H](O)[C@H]6O)CC[C@]5(C)[C@H]4CC[C@]3(C)[C@H]1[C@@H]2C [tomatine]
- Sglu/gal (log10 fold change) Score [9, 11]: −0.64

Molecule: CC[C@]1(O)C[C@@H]2CN(CCc3c([nH]c4ccccc34)[C@@](C(=O)OC)(c3cc4c(cc3OC)N(C)[C@H]3[C@@](O)(C(=O)OC)[C@H](OC(C)=O)[C@]5(CC)C=CCN6CC[C@]43[C@@H]65)C2)C1 [vinblastine sulfate]
- Sglu/gal (log10 fold change) Score [9, 11]: −0.27

Molecule: Clofilium tosylate
- Sglu/gal (log10 fold change) Score [9, 11]: 0.42

Molecule: Deguelin(-)
- Sglu/gal (log10 fold change) Score [9, 11]: 0.69

Molecule: Nonoxynol-9
- Sglu/gal (log10 fold change) Score [9, 11]: 0.46

Molecule: picropodophyllotoxin acetate
- Sglu/gal (log10 fold change) Score [9, 11]: −0.24
